# From US20110263539A1, “SHIP 1 MODULATOR COMPOUNDS” (THE UNIVERSITY OF BRITISH COLUMBIA, priority 2006, published 2011)
# System: J774.1a macrophage cells
# Experiment: Macrophage TNF-α production (Assay 2)
# Type: cell-based
# Details: 10 μg/mL test compound, 100 ng/mL LPS, ELISA
# Procedure: Assay 2) Macrophage TNF-α production. J774.1a macrophage cells were treated with 10 μg/mL of test compound dissolved in solvent (e.g. cyclodextran) for 40 minutes prior to the addition of 100 ng/mL LPS. Culture supernatants were collected after 2 hr and 5 hr for TNF-α determination by ELISA.
# Also: key: a ‘+’ indicates a positive result for desired activity; a ‘−’ indicates a negative result for desired activity.
row,Compound,Assay Number 2: Macrophage TNF-α production
1,"CCc1cc(O)c(O)c2c1[C@]1(C)CCC3C(C)(C)CCC[C@]3(C)[C@H]1C2 (stereo partly drawn) [Compound 18A, reference compound]",+
2,Cc1cc2c(cc1O)C[C@@H]1[C@@]3(C)CCCC(C)(C)[C@@H]3CC[C@@]21C [Compound 101],+
3,CC(=O)Oc1cc(C)c2c(c1)C[C@H]1[C@@]2(C)CCC2C(C)(C)CCC[C@@]21C (stereo partly drawn) [Compound 102],+
4,Cc1cc(OC(=O)C(N)CCCNC(=N)N)cc2c1[C@]1(C)CCC3C(C)(C)CCC[C@]3(C)[C@H]1C2 (stereo partly drawn) [Compound 105],+
5,Cc1cc(OP(=O)(O)O)cc2c1[C@]1(C)CCC3C(C)(C)CCC[C@]3(C)[C@H]1C2 (stereo partly drawn) [Compound 109],−
6,Cc1cc(OC(=O)C(CC(=O)O)NC(=O)CCC(=O)O)cc2c1[C@]1(C)CCC3C(C)(C)CCC[C@]3(C)[C@H]1C2 (stereo partly drawn) [Compound 114],+
7,COc1cc(O)cc2c1[C@]1(C)CC[C@H]3C(C)(C)CCC[C@]3(C)[C@H]1C2 [Compound 117],+
8,COc1ccc2c(c1O)C[C@@H]1[C@@]3(C)CCCC(C)(C)[C@@H]3CC[C@@]21C [Compound 118],−
9,CC1(C)CCC[C@]2(C)[C@H]3Cc4cc(O)ccc4[C@]3(C)CC[C@@H]12 [Compound 121],+
10,Cc1cc(O)c2c(c1)C[C@@H]1[C@@]3(C)CCCC(C)(C)[C@@H]3CC[C@@]21C [Compound 122],−

# System: MM cell lines
# Experiment: In vitro Multiple Myeloma (MM) assay (Assay 7)
# Type: cell-based
# Details: not given
# Procedure: Assay 7) In vitro Multiple Myeloma (MM) assay. The ability of SHIP activators to reduce tumor cell survival was assessed in MM cell lines treated with the test compound. The lines OPM1, OPM2, MM.1S and RPMI 8226 were plated at a density of 1×10^5 cells/mL in 200 μL of medium with various concentrations of the test compound, and viable cell numbers were determined on day 3 and day 5 by trypan blue exclusion. The lines RPMI 8226 and U266 were plated at a density of 1×10^6 cells/mL in 250 μL of medium with various concentrations of the test compound. At day 4, the medium of each culture was replaced by fresh medium containing the same concentration of test compound. At day 7, the viable cell number of each culture was determined by trypan blue exclusion.
# MM cell lines were cultured in 96 well plates seeded with 3×10^4 cells suspended in 200 μL of medium along with various concentrations of test compound (and associated cyclodextran vehicle control), with LY294002 serving as a positive control in the experiments. After 24-48 hrs of culture, […] of [3H]-thymidine (GE Healthcare, Baie D'Urfe, Canada) being added for the final 8 hours. Cells were harvested and DNA associated radioactivity was measured via liquid scintillation counting using a Wallac Microbeta counter (Perkin-Elmer; Boston, Mass.).
# The ability of SHIP activators to reduce tumor cell survival was assessed in multiple myeloma (MM) cell lines treated with Compound 100 or AQX-016A. The lines OPM1, OPM2, MM.1S and RPMI 8226 were plated at a density of 1×10^5 cells/mL in 200 μL of medium with various concentrations of Compound 100, and viable cell numbers were determined on day 3 and day 5 by trypan blue exclusion. The lines RPMI 8226 and U266 were plated at a density of 1×10^6 cells/mL in 250 μL of medium with various concentrations of AQX-016A. At day 4, the medium of each culture was replaced by fresh medium containing the same concentration of AQX-016A. At day 7, the viable cell number of each culture was determined by trypan blue exclusion. Experiments were performed in triplicate.
# Proliferation (DNA synthesis) assays. Proliferation was measured by measuring incorporation of [^3H]-thymidine into cells. MM cell lines were cultured in 96 well plates seeded with 3×10^4 cells suspended in 200 μL, of medium along with various concentrations of Compound 100 or AQX-016A (and associated cyclodextran vehicle control), with LY294002 serving as a positive control in the indicated experiments. After 24-48 hrs of culture, 1 μCi of [^3H]-thymidine (GE Healthcare, Baie D'Urfe, Canada) being added for the final 8 hours. Plates were frozen, which also aided in cell lysis, to terminate the experiments. Cells were then harvested onto glass fibre filters using an automatic cell harvester (TomTech; Orange, Conn.) and DNA associated radioactivity was measured via liquid scintillation counting using a Wallac Microbeta counter (Perkin-Elmer; Boston, Mass.). Wells were set up in triplicate and data is expressed as mean+/−SEM.
row,Compound,Assay Number 7: In vitro Multiple Myeloma (MM) assay
1,Cc1cc2c(cc1O)C[C@@H]1[C@@]3(C)CCCC(C)(C)[C@@H]3CC[C@@]21C [Compound 101],+
2,Cc1cc(OP(=O)(O)O)cc2c1[C@]1(C)CCC3C(C)(C)CCC[C@]3(C)[C@H]1C2 (stereo partly drawn) [Compound 109],+
3,COc1cc(O)cc2c1[C@]1(C)CC[C@H]3C(C)(C)CCC[C@]3(C)[C@H]1C2 [Compound 117],+
4,COc1ccc2c(c1O)C[C@@H]1[C@@]3(C)CCCC(C)(C)[C@@H]3CC[C@@]21C [Compound 118],+
5,CC1(C)CCC[C@]2(C)[C@H]3Cc4cc(O)ccc4[C@]3(C)CC[C@@H]12 [Compound 121],+
6,Cc1cc(O)c2c(c1)C[C@@H]1[C@@]3(C)CCCC(C)(C)[C@@H]3CC[C@@]21C [Compound 122],+

# System: SHIP enzyme
# Experiment: In vitro SHIP enzyme assay (Assay 1)
# Type: biochemical
# Details: 100 μM inositol-1,3,4,5-tetrakisphosphate, Malachite Green
# Procedure: Assay 1) In vitro testing in a SHIP enzyme assay. Test compounds were dissolved in a suitable solvent (e.g. EtOH, DMSO and others) and diluted into aqueous buffer (20 mM Tris HCl, pH 7.5 and 10 mM MgCl2). SHIP enzyme assays were performed in 96-well microtitre plates with 10 ng of enzyme/well in a total volume of 25 μL of 20 mM Tris HCl, pH 7.5 and 10 mM MgCl2. SHIP enzyme was incubated with test extracts (provided in solvent) or vehicle for 15 min at 23° C. before the addition of 100 μM inositol-1,3,4,5-tetrakisphosphate (Echelon Biosciences Inc, Salt Lake City, Utah). After 20 min at 37° C. and the amount of inorganic phosphate released assessed by the addition of Malachite Green reagent and absorbance measurement at 650 nm.
# For in vitro testing in the SHIP enzyme assay, AQX-016A and Compound 100 were dissolved in EtOH and diluted into aqueous buffer (20 mM Tris HCl, pH 7.5 and 10 mM MgCl2). The actual concentration of drug in solution was determined by optical density measurement at 280 nm (λmax for both compounds) after high speed centrifugation at 14 000×g for 30 min to remove precipitated drug. For testing on cells, compounds were formulated in the carrier cyclodextrin (Cyclodex Technologies, High Springs, Fla.) at 6 mM (2 mg/mL). For oral administration to animals, compounds were dissolved in 100% cremophore EL (Sigma-Aldrich Canada, Oakville, Ontario) at 150 mM (50 mg/mL) prior to dilution to 6 mM in phosphate buffer saline. However, while these compounds caged in cyclodextrin or formulated in cremophore EL micelles were very soluble in aqueous solution, they could not be used in the SHIP enzyme assays because of interference from both cyclodextrin and cremophore EL.
# N-terminal His6 tagged SHIP enzyme was expressed in mammalian 293T cells by transient transfection with pME18S-His-SHIP plasmid and purified to >95% homogeneity by Ni-chelating bead chromatography (Qiagen, Mississauga, Ontario). Recombinant SHIP C2 domain (amino acid residues 725 to 863) was expressed in E. coli transformed with a pET28C expression vector constructed as described below. Recombinant protein purified from the cell lysates by Nichelating bead chromatography was >95% pure.
# In vitro SHIP enzyme assay. SHIP enzyme assays were performed in 96-well microtitre plates with 10 ng of enzyme/well in a total volume of 25 μL of 20 mM Tris HCl, pH 7.5 and 10 Mm MgCl2. SHIP enzyme was incubated with test extracts (provided in DMSO) or vehicle for 15 min at 23° C. before the addition of 100 μM inositol-1,3,4,5-tetrakisphosphate (Echelon Biosciences Inc, Salt Lake City, Utah). After 20 min at 37° C. and the amount of inorganic phosphate released assessed by the addition of Malachite Green reagent and absorbance measurement at 650 nm. SHIP2 enzyme was purchased from Echelon Biosciences (Salt Lake City, Utah) and an equivalent amount of inositol phosphatase activity was used in the in vitro enzyme assay. Enzyme data are expressed as the mean of triplicates +/−SEM. Experiments were performed at least 3 times. (FIGS. 7A and 7B).
row,Compound,Assay Number 1: SHIP enzyme assay
1,"CCc1cc(O)c(O)c2c1[C@]1(C)CCC3C(C)(C)CCC[C@]3(C)[C@H]1C2 (stereo partly drawn) [Compound 18A, reference compound]",+

# System: J774.1a macrophage cells
# Experiment: Macrophage TNF-α NO assay (Assay 3)
# Type: cell-based
# Details: 10 μg/ml test compound, LPS, 24 hr, Griess reagent
# Procedure: Assay 3) Macrophage TNF-α NO assay. J774.1a macrophage cells were treated with 10 μg/ml of test compound dissolved in solvent for 40 minutes prior to the addition of LPS. Culture supernatants were collected after 24 hr. for determination of NO concentration using the Griess reagent.
row,Compound,Assay Number 3: Macrophage NO
1,"CCc1cc(O)c(O)c2c1[C@]1(C)CCC3C(C)(C)CCC[C@]3(C)[C@H]1C2 (stereo partly drawn) [Compound 18A, reference compound]",+
2,Cc1cc2c(cc1O)C[C@@H]1[C@@]3(C)CCCC(C)(C)[C@@H]3CC[C@@]21C [Compound 101],+
3,CC(=O)Oc1cc(C)c2c(c1)C[C@H]1[C@@]2(C)CCC2C(C)(C)CCC[C@@]21C (stereo partly drawn) [Compound 102],+
4,Cc1cc(OC(=O)C(N)CCCNC(=N)N)cc2c1[C@]1(C)CCC3C(C)(C)CCC[C@]3(C)[C@H]1C2 (stereo partly drawn) [Compound 105],+
5,Cc1cc(OP(=O)(O)O)cc2c1[C@]1(C)CCC3C(C)(C)CCC[C@]3(C)[C@H]1C2 (stereo partly drawn) [Compound 109],+
6,Cc1cc(OC(=O)C(CC(=O)O)NC(=O)CCC(=O)O)cc2c1[C@]1(C)CCC3C(C)(C)CCC[C@]3(C)[C@H]1C2 (stereo partly drawn) [Compound 114],+
7,COc1cc(O)cc2c1[C@]1(C)CC[C@H]3C(C)(C)CCC[C@]3(C)[C@H]1C2 [Compound 117],+
8,COc1ccc2c(c1O)C[C@@H]1[C@@]3(C)CCCC(C)(C)[C@@H]3CC[C@@]21C [Compound 118],+
9,CC1(C)CCC[C@]2(C)[C@H]3Cc4cc(O)ccc4[C@]3(C)CC[C@@H]12 [Compound 121],+
10,Cc1cc(O)c2c(c1)C[C@@H]1[C@@]3(C)CCCC(C)(C)[C@@H]3CC[C@@]21C [Compound 122],+
